Measured values: paper PMC8129133, “Polymer-free corticosteroid dimer implants for controlled and sustained drug delivery” (Nature Communications, 2021)
“And” between values parts separate entries of the source, which are not always exact repeats. Equal entries are not always repeated.

Assay: In vitro release
Format: physicochemical
Conditions: for Cumulative SM Release (%), avg / Cumulative SM Release (ng), avg: Fig 6c; for Cumulative Dex Release: Fig 5g pellet 1x1 mm, 2 ml FBS; for Cumulative Dex Release (%): Fig 5g pellet, FBS; for Cumulative Pred Release: Fig 5a pellet 1x1 mm, 4 ml PBS; for Cumulative Pred Release (%): Fig 5a pellet, PBS
Procedure: Pellets for release studies. Crystalline drug dimers were weighed on a stainless steel coupon. In the case of blends with a second drug, the dimer and drug were mixed at the desired mass ratio with mortar and pestle prior to weighing. Samples were transferred to a heat press (Carver Laboratory Press). A PTFE mold containing an array of 1 mm diameter holes of 1 mm depth was placed on top of the melt, and pressure was applied for 2 min. Molded pellets were cooled to room temperature and punched out of the mold, yielding a pellet of 1 mm height × 1 mm diameter.
Release studies were carried out using different media, including PBS (pH 7.4, Gibco), 100% FBS (Sigma, F1051), 1% FBS in PBS pH 7.4, and 3.6% BSA (Sigma, A7906) in PBS (pH 7.4, Gibco). […] Samples were incubated in release medium at 37 °C under constant agitation on an orbital shaker at 115 rpm (VWR). At designated timepoints, sampling was performed by complete removal of medium and replenishment with fresh buffer. Sampling timepoints included 24 h and then every 3–4 days thereafter. For PBS release conditions, samples were analyzed directly. For samples with protein (100% FBS, 1% FBS, 3.6% BSA), protein was precipitated by addition of acetonitrile. Samples were vortexed and centrifuged to separate extracted drug from precipitated protein. The supernatant was then analyzed for drug concentration by HPLC.

SMILES: CCN(CC)CCNC(=O)c1c(C)[nH]c(/C=C2\C(=O)Nc3ccc(F)cc32)c1C [sunitinib malate, reference compound]
- Cumulative SM Release (%), avg (Day 1, avg): 3.88%
- Cumulative SM Release (ng), avg (Day 1, avg): 5838.79 ng
- Cumulative SM Release (%), avg (Day 3, avg): 5.66%
- Cumulative SM Release (ng), avg (Day 3, avg): 8518.35 ng
- Cumulative SM Release (%), avg (Day 8, avg): 6.76%
- Cumulative SM Release (ng), avg (Day 8, avg): 10163.91 ng
- Cumulative SM Release (%), avg (Day 10, avg): 7.42%
- Cumulative SM Release (%), avg (Day 14, avg): 8.14%
- Cumulative SM Release (ng), avg (Day 14, avg): 12242.96 ng

SMILES: CC1CC2C3CCC4=CC(=O)C=CC4(C)C3(F)C(O)CC2(C)C1(O)C(=O)COC(=O)OCCCCCCOC(=O)OCC(=O)C1(O)C(C)CC2C3CCC4=CC(=O)C=CC4(C)C3(F)C(O)CC21C (stereo not drawn) [Dex-Hex-Dex]
- Cumulative Dex Release (Day 3, samples and avg): 5606.66 ng and 6179.38 ng and 5887.12 ng
- Cumulative Dex Release (Day 3, samples and avg, mean): 5891.06 ng
- Cumulative Dex Release (Day 7, samples and avg (Dex-Hex-Dex)): 14987.41 ng and 15994.59 ng and 15970.98 ng
- Cumulative Dex Release (Day 7, samples and avg (Dex-Hex-Dex), mean): 15650.99 ng
- Cumulative Dex Release (Day 10, samples and avg): 21287.07 ng and 22357.19 ng and 22516.81 ng
- Cumulative Dex Release (Day 10, samples and avg, mean): 22053.69 ng
- Cumulative Dex Release (Day 14, samples and avg (Dex-Hex-Dex)): 32738.37 ng and 34997.20 ng and 34417.18 ng
- Cumulative Dex Release (Day 14, samples and avg (Dex-Hex-Dex), mean): 34050.91 ng
- Cumulative Dex Release (%) (Day 3, avg): 0.42%
- Cumulative Dex Release (%) (Day 7, avg (Dex-Hex-Dex)): 1.13%
- Cumulative Dex Release (%) (Day 10, avg): 1.59%
- Cumulative Dex Release (%) (Day 14, avg (Dex-Hex-Dex)): 2.45%

SMILES: CC12C=CC(=O)C=C1CCC1C2C(O)CC2(C)C1CCC2(O)C(=O)COC(=O)OCCOCCOCCOC(=O)OCC(=O)C1(O)CCC2C3CCC4=CC(=O)C=CC4(C)C3C(O)CC21C (stereo not drawn) [Pred-TEG-Pred]
- Cumulative Pred Release (Day 1, samples and avg): 4849.98 ng and 3117.45 ng and 2848.01 ng
- Cumulative Pred Release (Day 1, samples and avg, mean): 3605.15 ng
- Cumulative Pred Release (Day 3, samples and avg): 9969.33 ng and 8304.40 ng and 8589.91 ng
- Cumulative Pred Release (Day 3, samples and avg, mean): 8954.55 ng
- Cumulative Pred Release (Day 7, samples and avg): 27879.94 ng and 24662.51 ng and 25461.45 ng
- Cumulative Pred Release (Day 7, samples and avg, mean): 26001.30 ng
- Cumulative Pred Release (Day 14, samples and avg): 55975.76 ng and 47712.14 ng and 52962.20 ng
- Cumulative Pred Release (Day 14, samples and avg, mean): 52216.70 ng
- Cumulative Pred Release (%) (Day 1, avg): 0.38%
- Cumulative Pred Release (%) (Day 3, avg): 0.94%
- Cumulative Pred Release (%) (Day 7, avg): 2.72%
- Cumulative Pred Release (%) (Day 14, avg): 5.45%
